In PMC6169004, “In vitro pro-inflammatory enzyme inhibition and anti-oxidant potential of selected Sri Lankan medicinal plants” (BMC Complementary and Alternative Medicine, 2018):

Molecular target: T1, A5-LOX (soybean); arachidonate-5-lipoxygenase
T1 construct: gene LOX1.1; most likely lipoxygenase-1
Test: spectrophotometric, absorbance at […] nm
Format: biochemical, Glycine max
Settings: linoleic acid substrate ([…] μL of […]), sodium phosphate pH […] °C, […] min preincubation

Anti-A5-LOX activity IC50 (μg mL^- 1): 1.76 ± 0.15 μg mL^− 1
Compound: O=c1cc(-c2ccccc2)oc2cc(O)c(O)c(O)c12 [Baicalein]
